Measurements from ChEMBL document CHEMBL1909046, “DrugMatrix in vitro pharmacology data”.

What was measured:
[1] = target: T1, Muscarinic acetylcholine receptor M4 (Homo sapiens, UniProt P08173); type: cell membranes, CHO-K1, Membrane; settings: cho-k1
T1 sequence (P08173 whole entry): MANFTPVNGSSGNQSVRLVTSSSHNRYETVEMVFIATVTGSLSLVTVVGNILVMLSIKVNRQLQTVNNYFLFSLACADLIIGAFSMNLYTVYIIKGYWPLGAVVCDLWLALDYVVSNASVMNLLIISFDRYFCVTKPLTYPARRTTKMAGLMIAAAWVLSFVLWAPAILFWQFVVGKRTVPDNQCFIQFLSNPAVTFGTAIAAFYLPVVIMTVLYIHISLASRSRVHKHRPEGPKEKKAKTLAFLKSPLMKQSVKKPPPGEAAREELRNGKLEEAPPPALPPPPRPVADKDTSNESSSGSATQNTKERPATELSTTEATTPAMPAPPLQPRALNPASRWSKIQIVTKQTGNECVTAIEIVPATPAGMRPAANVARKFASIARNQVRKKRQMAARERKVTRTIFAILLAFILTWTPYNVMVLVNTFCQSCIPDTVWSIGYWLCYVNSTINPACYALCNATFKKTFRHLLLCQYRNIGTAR

[2] = target: T2, Nitric oxide synthase, inducible (Mus musculus, UniProt P29477); set-up: species or system Escherichia coli;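 note: inhibition of iNOS enzyme activity measured with L-arginine as substrate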
T2 sequence (P29477 whole entry): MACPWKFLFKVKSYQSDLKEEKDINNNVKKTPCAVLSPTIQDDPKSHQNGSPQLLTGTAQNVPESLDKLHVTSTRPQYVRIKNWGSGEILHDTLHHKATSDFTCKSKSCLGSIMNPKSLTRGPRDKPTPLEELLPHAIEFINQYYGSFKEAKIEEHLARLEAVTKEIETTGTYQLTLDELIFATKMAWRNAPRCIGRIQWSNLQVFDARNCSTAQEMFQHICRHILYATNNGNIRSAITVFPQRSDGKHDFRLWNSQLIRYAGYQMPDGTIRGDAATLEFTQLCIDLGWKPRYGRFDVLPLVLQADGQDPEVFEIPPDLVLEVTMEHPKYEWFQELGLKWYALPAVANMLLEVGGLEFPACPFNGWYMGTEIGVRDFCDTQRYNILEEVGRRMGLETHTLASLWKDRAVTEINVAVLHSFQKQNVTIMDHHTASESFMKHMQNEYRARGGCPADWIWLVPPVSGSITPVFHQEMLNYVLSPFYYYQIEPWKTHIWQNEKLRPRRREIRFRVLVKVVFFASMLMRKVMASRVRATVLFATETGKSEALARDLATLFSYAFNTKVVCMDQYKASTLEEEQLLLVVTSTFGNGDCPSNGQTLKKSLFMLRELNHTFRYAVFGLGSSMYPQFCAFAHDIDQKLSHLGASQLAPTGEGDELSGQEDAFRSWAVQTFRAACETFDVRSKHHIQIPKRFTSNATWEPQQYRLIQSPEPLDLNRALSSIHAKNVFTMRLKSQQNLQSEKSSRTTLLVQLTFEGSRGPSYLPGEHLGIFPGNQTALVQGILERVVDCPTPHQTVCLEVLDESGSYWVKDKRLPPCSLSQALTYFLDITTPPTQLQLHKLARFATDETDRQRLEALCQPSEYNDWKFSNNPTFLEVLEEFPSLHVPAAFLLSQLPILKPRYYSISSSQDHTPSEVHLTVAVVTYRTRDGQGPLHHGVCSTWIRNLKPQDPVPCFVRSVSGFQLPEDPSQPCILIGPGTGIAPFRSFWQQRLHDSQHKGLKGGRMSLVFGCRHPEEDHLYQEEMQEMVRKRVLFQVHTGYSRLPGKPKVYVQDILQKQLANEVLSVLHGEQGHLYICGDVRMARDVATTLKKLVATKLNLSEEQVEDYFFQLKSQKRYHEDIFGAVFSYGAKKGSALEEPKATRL

[3] = target: Estrogen receptor beta (Homo sapiens, UniProt Q92731); settings: sf9
[4] = target: T3, Neuropeptide Y receptor type 1 (Homo sapiens, UniProt P25929); type: cell membranes, Membrane; settings: sk-n-mc
T3 sequence (P25929 whole entry): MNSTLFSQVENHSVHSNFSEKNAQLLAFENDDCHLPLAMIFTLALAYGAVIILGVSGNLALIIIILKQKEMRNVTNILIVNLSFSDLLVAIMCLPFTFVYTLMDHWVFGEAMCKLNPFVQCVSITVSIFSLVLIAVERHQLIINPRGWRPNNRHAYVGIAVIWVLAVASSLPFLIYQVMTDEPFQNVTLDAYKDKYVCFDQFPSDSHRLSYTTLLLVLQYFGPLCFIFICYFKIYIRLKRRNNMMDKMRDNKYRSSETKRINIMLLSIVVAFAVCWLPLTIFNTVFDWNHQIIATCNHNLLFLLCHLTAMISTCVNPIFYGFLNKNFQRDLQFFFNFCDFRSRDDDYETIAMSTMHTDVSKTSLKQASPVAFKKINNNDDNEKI

[5] = target: T4, Cytochrome P450 1A2 (Homo sapiens, UniProt P05177); settings: bti-tn-5b1-4
T4 sequence (P05177 whole entry): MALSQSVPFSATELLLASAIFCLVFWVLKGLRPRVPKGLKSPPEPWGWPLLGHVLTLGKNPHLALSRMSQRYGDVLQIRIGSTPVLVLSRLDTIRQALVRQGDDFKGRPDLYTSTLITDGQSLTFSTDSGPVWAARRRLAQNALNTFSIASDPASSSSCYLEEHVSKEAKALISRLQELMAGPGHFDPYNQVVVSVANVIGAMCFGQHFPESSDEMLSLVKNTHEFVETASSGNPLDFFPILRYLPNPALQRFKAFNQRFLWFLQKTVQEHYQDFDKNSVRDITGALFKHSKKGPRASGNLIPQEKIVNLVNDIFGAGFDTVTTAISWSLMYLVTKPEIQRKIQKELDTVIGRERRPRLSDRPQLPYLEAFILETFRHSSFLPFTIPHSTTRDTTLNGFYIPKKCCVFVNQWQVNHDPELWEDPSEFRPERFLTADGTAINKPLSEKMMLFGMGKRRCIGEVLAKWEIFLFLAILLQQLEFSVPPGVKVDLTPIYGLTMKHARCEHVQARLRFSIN

[6] = target: Cytochrome P450 3A4 (Homo sapiens, UniProt P08684); settings: bti-tn-5b1-4
Note: in other assays of this panel Not Active means under 50% inhibition at 10 µM.

Estrogen receptor beta, sequence (Q92731 whole entry): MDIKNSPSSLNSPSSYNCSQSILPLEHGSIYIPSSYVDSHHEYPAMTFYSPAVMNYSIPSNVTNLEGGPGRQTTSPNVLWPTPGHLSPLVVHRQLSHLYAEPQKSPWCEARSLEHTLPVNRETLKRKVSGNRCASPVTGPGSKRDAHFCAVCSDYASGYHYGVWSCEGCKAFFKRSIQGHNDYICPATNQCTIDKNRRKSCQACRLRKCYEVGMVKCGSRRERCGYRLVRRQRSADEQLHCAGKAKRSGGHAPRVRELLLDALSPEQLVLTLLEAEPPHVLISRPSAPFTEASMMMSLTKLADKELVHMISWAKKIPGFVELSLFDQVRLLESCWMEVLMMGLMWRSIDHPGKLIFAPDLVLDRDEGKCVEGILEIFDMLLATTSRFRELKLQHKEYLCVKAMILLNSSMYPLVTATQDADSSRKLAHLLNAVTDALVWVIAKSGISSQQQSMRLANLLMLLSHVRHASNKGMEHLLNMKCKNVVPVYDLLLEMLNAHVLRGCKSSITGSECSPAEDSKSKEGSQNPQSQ
Cytochrome P450 3A4, sequence (P08684 whole entry): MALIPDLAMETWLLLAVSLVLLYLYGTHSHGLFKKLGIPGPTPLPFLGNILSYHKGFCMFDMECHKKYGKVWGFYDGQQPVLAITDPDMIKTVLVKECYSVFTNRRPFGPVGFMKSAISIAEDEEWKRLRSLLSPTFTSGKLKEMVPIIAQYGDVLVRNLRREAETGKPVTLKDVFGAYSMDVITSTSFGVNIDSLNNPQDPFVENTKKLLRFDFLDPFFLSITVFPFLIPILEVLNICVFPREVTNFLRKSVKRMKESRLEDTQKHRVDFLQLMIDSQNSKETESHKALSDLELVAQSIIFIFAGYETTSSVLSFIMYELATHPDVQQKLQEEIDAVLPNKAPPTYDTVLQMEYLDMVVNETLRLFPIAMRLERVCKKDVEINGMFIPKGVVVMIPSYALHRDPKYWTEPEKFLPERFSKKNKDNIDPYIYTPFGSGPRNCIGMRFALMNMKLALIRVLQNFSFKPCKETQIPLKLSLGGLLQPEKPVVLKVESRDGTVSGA

CCOc1nc2cccc(C(=O)O)c2n1Cc1ccc(-c2ccccc2-c2nnn[nH]2)cc1
Not Active: IC50 [1] | IC50 [2] | IC50 [3] | IC50 [4]

CC(C)C[C@H]1C(=O)N2CCC[C@H]2[C@]2(O)O[C@](NC(=O)[C@@H]3C=C4c5cccc6[nH]cc(c56)C[C@H]4N(C)C3)(C(C)C)C(=O)N12 [ERGOCRYPTINE]
Not Active: IC50 [1] | IC50 [2] | IC50 [5] | Ki [5] | IC50 [3] | IC50 [4]

C#C[C@]1(O)CC[C@H]2[C@@H]3CCC4=CC(=O)CC[C@]4(C)[C@H]3CC[C@@]21C [ETHISTERONE]
Not Active: IC50 [6] | Ki [6] | IC50 [1] | IC50 [2] | IC50 [3] | IC50 [4]

CC(C)(C(=O)O)c1ccc(C(O)CCCN2CCC(C(O)(c3ccccc3)c3ccccc3)CC2)cc1 (configuration not stated) [FEXOFENADINE]
Not Active: IC50 [1] | IC50 [2] | IC50 [3] | IC50 [4]

CC(=O)OCC(=O)[C@@]12OC(C)(C)O[C@@H]1C[C@H]1[C@@H]3C[C@H](F)C4=CC(=O)C=C[C@]4(C)[C@@]3(F)[C@@H](O)C[C@@]12C [FLUOCINONIDE]
Not Active: IC50 [1] | IC50 [2] | IC50 [3] | IC50 [4]

O=C(O)P(=O)(O)O [FOSCARNET]
Not Active: IC50 [6] | Ki [6] | IC50 [1] | IC50 [2] | IC50 [5] | Ki [5] | IC50 [4]

O=c1c(-c2ccc(O)cc2)coc2cc(O)cc(O)c12 [GENISTEIN]
Not Active: IC50 [6] | Ki [6] | IC50 [1] | IC50 [2] | IC50 [5] | Ki [5] | IC50 [4]

N[C@@H](Cn1ccc(=O)c(O)c1)C(=O)O [L-MIMOSINE]
Not Active: IC50 [1] | IC50 [2] | IC50 [3] | IC50 [4]

C[N+](C)(C)C[C@H](O)CC(=O)[O-] [LEVOCARNITINE]
Not Active: IC50 [6] | Ki [6] | IC50 [1] | IC50 [2] | IC50 [5] | Ki [5] | IC50 [4]

CCn1cc(C(=O)O)c(=O)c2cc(F)c(N3CCNC(C)C3)c(F)c21 (configuration not stated) [LOMEFLOXACIN]
Not Active: IC50 [6] | Ki [6] | IC50 [1] | IC50 [2] | IC50 [5] | Ki [5] | IC50 [4]

C[C@@H]1C/C=C/C=C/C=C/C=C/[C@H](O[C@@H]2O[C@H](C)[C@@H](O)[C@H](N)[C@@H]2O)C[C@@H]2O[C@](O)(C[C@@H](O)C[C@H]3O[C@@H]3/C=C/C(=O)O1)C[C@H](O)[C@H]2C(=O)O [NATAMYCIN]
Not Active: IC50 [1] | IC50 [2] | IC50 [3] | IC50 [4]

CN(C)C(=O)Oc1cccc([N+](C)(C)C)c1.[Br-] [NEOSTIGMINE BROMIDE]
Not Active: IC50 [6] | Ki [6] | IC50 [1] | IC50 [2] | IC50 [5] | Ki [5] | IC50 [4]

CN1C(=O)CN=C(c2ccccc2)c2cc([N+](=O)[O-])ccc21 [NIMETAZEPAM]
Not Active: IC50 [6] | Ki [6] | IC50 [1] | IC50 [2] | IC50 [5] | Ki [5] | IC50 [4]

COc1ccc2c(c1OC)C(=O)O[C@@H]2[C@H]1c2c(cc3c(c2OC)OCO3)CCN1C [NOSCAPINE]
Not Active: IC50 [6] | Ki [6] | IC50 [1] | IC50 [2] | IC50 [5] | Ki [5] | IC50 [4]

CCCNC(C)C(=O)Nc1ccccc1C (configuration not stated) [PRILOCAINE]
Not Active: IC50 [6] | Ki [6] | IC50 [1] | IC50 [2] | IC50 [5] | Ki [5] | IC50 [4]

C[C@]12C=CC(=O)C=C1CC[C@H]1[C@@H]3C[C@@H](O)[C@](O)(C(=O)CO)[C@@]3(C)C[C@H](O)[C@@]12F [TRIAMCINOLONE]
Not Active: IC50 [6] | Ki [6] | IC50 [1] | IC50 [2] | IC50 [5] | Ki [5] | IC50 [4]

CCN(C(C)=O)c1cccc(-c2ccnc3c(C#N)cnn23)c1 [ZALEPLON]
Not Active: IC50 [6] | Ki [6] | IC50 [1] | IC50 [2] | IC50 [5] | Ki [5] | IC50 [4]
